“Also recorded” adds a separate entry of the source. Each block holds one molecule with its values, some of them ahead of it.
Key:
[1] = Colon pharmacokinetics in rats; assay type: in vivo, Sprague Dawley rats; conditions: rat, oral administration (summary statement)
Experimental: The test compound was formulated in 0.5% methyl-cellulose in water and dosed via oral gavage at 3.2 mg/kg and 100 mg/kg to Sprague Dawley rats. At various time points (typically 0.5, 1, 3, 6, 24 hr) post dosing, blood samples were removed via cardiac puncture and intact colons were excised from the rats. Blood samples were centrifuged at 1500×g for 15 min to collect plasma. Colons were washed with ice cold phosphate buffered saline (PBS), weighed, and homogenized at a dilution of 1:10 in PBS. Plasma and colon levels of test compound were determined by LC-MS analysis against analytical standards constructed into a standard curve in the test matrix. A colon to plasma ratio was determined as the ratio of the colon AUC to the plasma AUC in μg hr/g.

[2] = tested on: oxazolone-induced colitis; experiment: Mouse model of oxazolone-induced colitis; assay type: in vivo, BALB/C mice; conditions: mice (summary statement)
Experimental: Oxazolone-induced colitis is an experimental model that has a histological resemblance to human ulcerative colitis (Heller et al. […], 2002, 17, 629-638). Adult BALB/C mice from Harlan were used in the assay. On day 1, animals were lightly anesthetized with isoflurane and the hairs between the shoulder were carefully removed before oxazolone (4%, 150 μL, 4:1 acetone: olive oil formulation) or vehicle solution was slowly applied for skin sensitization. Seven days after skin sensitization, the mice were fasted overnight, anesthetized with isoflurane inhalation, and a 1 mL syringe equipped with a 3.5-F catheter, filled with oxazolone solution, was inserted carefully about 4 cm into the colon of the mouse. Following insertion, 50 μL of the oxazolone solution (1%, 1:1 ethanol:water formulation) was injected very slowly (over 30 sec using an injection pump) into the colon. […] Two-day post oxazolone intrarectal challenge, the Disease Activity Index (DAI) was assessed by treatment-blinded experimenters for each mouse according to the criteria score: stool consistency score (0, normal; 2, loose; 4, diarrhea), gross bleeding score (0, absence; 2, blood tinged; 4, presence), and weight loss score (0, none; 1, 1%-5%; 2, 5%-10%; 3, 10%-20%; 4, more than 20%); DAI=average of (stool consistency score+gross bleeding score+weight loss score). […]

[3] = tested on: splenic NK, B and T cells; conditions: mouse, in vivo; for B and T cell populations (spleen): po
Experimental: Depletion of mouse splenic cells is an experimental model of immunosuppression (Kudlacz et al., Am. J. of Transplantation, 2004, 4, 51-57). The compound of Example 2 was assessed in the mouse splenic cell model following the same treatment paradigm as that used in the oxazolone-induced colitis model (Assay 8).
The compound (1, 10 and 100 mg/kg, BID) and tofacitinib (30 and 60 mg/kg, BID) as a positive control were dosed orally for three days to naïve mice. Spleens were harvested 1 h post last dose and crushed immediately for cell subtype staining. Prior to fixation, fluorophore-labelled antibodies for CD19 (FITC; B cells), CD3e (PE; pan T cells) and DX5 (APC; NK cells) were incubated with splenocyte samples from each animal to allow for simultaneous, multiple subtype % analysis on the flow cytometer. The number of total spleen cells for each animal was measured by Scepter™ 2.0 Handheld Automated Cell Counter.
The absolute number of lymphocyte subtype population (e.g., splenic B, T and NK cells) was calculated from the percentage of each subtype times total spleen cells for each animal. A one way ANOVA, with Dunnett's post hoc test, was used to compare the splenic lymphocytes number of the vehicle and test compound groups. The a level was set at p<0.05. Data were presented as the mean±SEM for each group.

[4] = tested on: TPA-induced increase in ear thickness; experiment: Topical TPA-induced irritant contact dermatitis model in mice; assay type: in vivo, Balb/c mice; conditions: mouse, topical 30-3000 μg per ear, 6 hours after TPA
Experimental: The objective of this assay is to assess the anti-inflammatory effect in a model of acute dermatitis of test compounds being studied for cutaneous inflammatory conditions such as atopic dermatitis (Dong et al., J Pharmacol Exp Ther, 2013, 344, 436-446).
Topical dermal application of phorbol ester 12-O-tetradecanoylphorbol-13-acetate (TPA) in mice causes an inflammatory response that is characterized by edema and neutrophil influx at the early phase (2-24 h) and by epidermal cell proliferation at the later phase (24-48 h) (Griffiths et al., Agents and Actions, 1988, 25, 344-351). Female Balb/c mice were topically administered with either vehicle (1:7 DMSO:acetone) or 20 μL of a solution of TPA (2.5 μg) in vehicle on each ear. At 30 min before and 15 min after TPA administration, either vehicle or the compound of Example 2 at doses of 30, 100, 300, 1000, and 3000 μg in vehicle was applied topically to each ear. The degree of inflammation was assessed as the change in ear thickness at 6 hours after TPA application.

JAK3 = JAK3 (Homo sapiens (Human), UniProt P52333); experiment: LanthaScreen JAK biochemical assay, JAK3
Experimental: A panel of four LanthaScreen JAK biochemical assays (JAK1, 2, 3 and Tyk2) were carried in a common kinase reaction buffer (50 mM HEPES, pH 7.5, 0.01% Brij-35, 10 mM MgCl2, and 1 mM EGTA). Recombinant GST-tagged JAK enzymes and a GFP-tagged STAT1 peptide substrate were obtained from Life Technologies.
Serially diluted compounds were pre-incubated with each of the four JAK enzymes and the substrate in white 384-well microplates (Corning) at ambient temperature for 1h. ATP was subsequently added to initiate the kinase reactions in 10 μL total volume, with 1% DMSO. […] The plates were allowed to incubate at ambient temperature for 1h before being read on the EnVision reader (Perkin Elmer).
For dose-response analysis, percent inhibition data were plotted vs. compound concentrations, and IC50 values were determined from a 4-parameter robust fit model with the Prism software (GraphPad Software). Results were expressed as pIC50 (negative logarithm of IC50) and subsequently converted to pKi (negative logarithm of dissociation constant, Ki) using the Cheng-Prusoff equation.

[5] = Dynamic moisture sorption assessment; assay type: physicochemical; conditions: 5% to 90% relative humidity; for weight gain: 25° C.
Experimental: Dynamic moisture sorption (DMS) measurement was performed using a VTI atmospheric microbalance, SGA-100 system (VTI Corp., Hialeah, Fla. 33016). A weighed sample was used and the humidity was lowest possible value (close to 0% RH) at the start of the analysis. The DMS analysis consisted of an initial drying step (0% RH) for 120 minutes, followed by two cycles of sorption and desorption with a scan rate of 5% RH/step over the humidity range of 5% RH to 90% RH. The DMS run was performed isothermally at 25° C.

JAK3, sequence (P52333 whole entry): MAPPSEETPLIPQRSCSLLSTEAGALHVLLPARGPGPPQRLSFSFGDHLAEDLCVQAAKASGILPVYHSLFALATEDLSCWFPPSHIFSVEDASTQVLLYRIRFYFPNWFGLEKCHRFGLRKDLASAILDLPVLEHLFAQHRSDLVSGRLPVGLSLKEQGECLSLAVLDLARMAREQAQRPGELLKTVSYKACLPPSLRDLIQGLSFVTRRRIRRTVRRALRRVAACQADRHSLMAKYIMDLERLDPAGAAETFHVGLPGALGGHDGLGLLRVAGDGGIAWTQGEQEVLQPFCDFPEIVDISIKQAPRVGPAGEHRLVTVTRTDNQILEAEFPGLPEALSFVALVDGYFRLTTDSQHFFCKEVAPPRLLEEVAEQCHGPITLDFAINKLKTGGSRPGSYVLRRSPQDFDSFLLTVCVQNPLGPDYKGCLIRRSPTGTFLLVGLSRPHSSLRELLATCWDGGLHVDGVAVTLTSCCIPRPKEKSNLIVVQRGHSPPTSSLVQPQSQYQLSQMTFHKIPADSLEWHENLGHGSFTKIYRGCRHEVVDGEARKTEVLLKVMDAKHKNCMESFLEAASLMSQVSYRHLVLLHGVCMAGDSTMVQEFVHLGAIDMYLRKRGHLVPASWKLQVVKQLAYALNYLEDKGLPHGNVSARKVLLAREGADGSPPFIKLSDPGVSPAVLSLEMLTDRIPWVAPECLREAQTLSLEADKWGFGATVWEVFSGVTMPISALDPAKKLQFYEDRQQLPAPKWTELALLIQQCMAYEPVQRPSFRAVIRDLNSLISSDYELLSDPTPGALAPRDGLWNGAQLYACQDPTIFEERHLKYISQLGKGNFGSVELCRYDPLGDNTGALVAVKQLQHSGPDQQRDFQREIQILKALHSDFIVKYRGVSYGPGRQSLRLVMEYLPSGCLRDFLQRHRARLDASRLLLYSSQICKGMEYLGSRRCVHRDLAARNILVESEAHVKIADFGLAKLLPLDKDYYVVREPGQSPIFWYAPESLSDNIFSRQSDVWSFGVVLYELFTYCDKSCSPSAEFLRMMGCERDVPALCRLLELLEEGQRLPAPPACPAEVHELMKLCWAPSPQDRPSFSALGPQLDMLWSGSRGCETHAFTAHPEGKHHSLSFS

SMILES: COc1cc(Nc2cc(CO)[nH]n2)nc(N(C)[C@@H]2C[C@H]3CCC[C@@H](C2)N3S(=O)(=O)N2CC(C#N)C2)n1 [Example 2, 1-(((1R,3s,5S)-3-((4-((5-(Hydroxymethyl)-1H-pyrazol-3-yl)amino)-6-methoxypyrimidin-2-yl)(methyl)amino)-9-azabicyclo[3.3.1]nonan-9-yl)sulfonyl)azetidine-3-carbonitrile]
- ratio of exposure in the colon to exposure in plasma [1]: greater than 250
- activity in the oxazolone-induced colitis model [2]: demonstrated activity
- effect of immunosuppression [3]: minimal effect of immunosuppression
- B and T cell populations (spleen) [3]: No treatment effect
- inhibition of TPA-induced increase in ear thickness [4]: dose- and concentration-dependent effect; also recorded: dose- and concentration-dependent inhibition

SMILES: COc1cc(Nc2cc(CO)[nH]n2)nc(N(C)[C@@H]2C[C@H]3CCC[C@@H](C2)N3C(=O)C(F)F)n1 [Example 9, 2,2-difluoro-1-((1R,3s,5S)-3-((4-((5-(hydroxymethyl)-1H-pyrazol-3-yl)amino)-6-methoxypyrimidin-2-yl)(methyl)amino)-9-azabicyclo[3.3.1]nonan-9-yl)ethan-1-one]
- JAK 3 (pKi) (JAK3): D (D represents a pKi value between 7.5 and 8 (Ki between 31.6 nM and 10 nM))

SMILES: COc1cc(Nc2cc(CO)[nH]n2)nc(N(C)[C@@H]2C[C@H]3CCC[C@@H](C2)N3S(=O)(=O)N2CC(C#N)C2)n1 [Form I, 1-(((1R,3s,5S)-3-((4-((5-(hydroxymethyl)-1H-pyrazol-3-yl)amino)-6-methoxypyrimidin-2-yl)(methyl)amino)-9-azabicyclo[3.3.1]nonan-9-yl)sulfonyl)azetidine-3-carbonitrile]
- hygroscopicity [5]: non-hygroscopic
- weight gain [5]: less than 0.4%
- weight gain ([5]; listed as Crystalline 1-((1R,3s,5S)-3-((4-((5-(hydroxymethyl)-1H-pyrazol-3-yl)amino)-6-me)))): less than 0.4%

SMILES: COc1cc(Nc2cc(CO)[nH]n2)nc(N(C)[C@@H]2C[C@H]3CCC[C@@H](C2)N3S(=O)(=O)N2CC(C#N)C2)n1 [Form II, 1-(((1R,3s,5S)-3-((4-((5-(hydroxymethyl)-1H-pyrazol-3-yl)amino)-6-methoxypyrimidin-2-yl)(methyl)amino)-9-azabicyclo[3.3.1]nonan-9-yl)sulfonyl)azetidine-3-carbonitrile]
- weight gain [5]: about 1.2%

- B and T cell populations (spleen) [3]: No treatment effect
SMILES: C[C@@H]1CCN(C(=O)CC#N)C[C@@H]1N(C)c1ncnc2[nH]ccc12 [tofacitinib, reference compound]

— patent US11110095B2, “Pyrimidine compounds as JAK kinase inhibitors” (THERAVANCE BIOPHARMA R&D IP, LLC, priority 2016, dated 2021)
